Laboratory results as given in PubChem BioAssay AID2740 (NMMLSC, 2010).
Active and inactive are the calls of the source.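 How the source made its calls: active means compounds whose fitted half-maximal concentration for changing the GFP signal is at or below a set limit; inactive means the rest.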

assay: TOR pathway RPL19A-GFP modulators, concentration series – cell-based, S. cerevisiae, flow cytometry, MLPCN hits, dose response (AID 2740);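 further: background is signal of the same compound in parental non-GFP s288c yeast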; conditions: S. cerevisiae RPL19A-GFP strain, flow cytometry fluorescence, 3 h; at 33 µM (top of the series)

Structure (SMILES) | GFP fluorescence, lower = active (kMESF (background-subtracted))
COc1cccc(N=Cc2nc(-c3ccccc3)oc2OC(C)=O)c1 | 41.9 (inactive)
O=C(Oc1oc(-c2ccco2)nc1C=Nc1ccc(Cl)cc1)c1ccco1 | 52.3 (inactive)
Cc1ccsc1/C=N/Nc1ncc(Cl)cc1Cl | 49.1 (inactive)
O=[N+]([O-])c1c(Nc2ccccn2)cc(Cl)c2nonc12 | 68.3 (inactive)
COc1ccc(N2CCN(C(=O)c3ccccc3)CC2)c([N+](=O)[O-])c1 | 47.4 (inactive)
Oc1c(I)cc(I)c2cccnc12 | 23 (inactive)
CC[C@@]1(c2ccccc2OC)ON(c2ccccc2C(F)(F)F)C1=O | 35.9 (inactive)
COc1ccccc1NC1=C(Cl)C(=O)N(c2ccccc2)C1=O | 39.5 (inactive)
O=C(O)c1ccc(COc2ccccc2C=C2C(=O)c3ccccc3C2=O)cc1 | 38.9 (inactive)
CCCCCn1c(=O)c(C(=O)Nc2nc3ccccc3[nH]2)c(O)c2ccccc21 | 43.6 (inactive)
Cc1cccc(C(=O)NC(=S)NNC(=O)Cc2ccccc2)c1 | 52.4 (inactive)
O=C(Nc1cccc(C(F)(F)F)c1)Oc1ccc(Cl)c2cccnc12 | 39.4 (inactive)
CC(=O)Oc1ccc(N2C(=O)C3C4C=CC(O4)C3C2=O)cc1 (stereo not given) | 48.8 (inactive)
CCc1sc(C(=O)Nc2nc(-c3ccccn3)cs2)cc1C | 21.1 (inactive)
c1ccc(-c2csc(Nc3cccnc3)n2)nc1 | 36.5 (inactive)
O=C(NC(=S)NNC(=O)c1cnccn1)c1ccc(F)cc1 | 31.9 (inactive)
CS(=O)(=O)c1sc(C#N)c2c1C(=O)CC(c1ccccc1)C2 (stereo not given) | 38.5 (inactive)
O=C1NC(=O)N(CCc2ccc(F)cc2)C(=O)/C1=C/c1cccs1 | 38.2 (inactive)
O=C(/C=C/c1ccc(Br)cc1)NC(=S)NNC(=O)c1ccco1 | 50.2 (inactive)
COc1cc(N2C(=O)C=CC2=O)c(OC)cc1Cl | 18.8 (inactive)

Structure (SMILES) | GFP fluorescence, lower = active (kMESF (background-subtracted))
COc1ccc(C2(C)ON(c3ccccc3C(F)(F)F)C2=O)cc1 (stereo not given) | 34.3 (inactive)
Cc1ccc(-c2nc(C)sc2CC(=O)Nc2nnc(C)s2)cc1 | 37.9 (inactive)
Cc1ccc(/C(N)=N/OC(=O)c2ccc(F)cc2)cc1 | 43.7 (inactive)
On1ccccc1=S | 38 (inactive)
CCN1/C(=C/c2ccc3cc(C)ccc3[n+]2CC)Sc2ccc3sccc3c21 | 31.5 (inactive)
Oc1c(C(Nc2cccc(C(F)(F)F)c2)c2ccncc2)ccc2cccnc12 (stereo not given) | 45.3 (inactive)
CCc1nc2ccccc2c(=O)n1NC(=O)c1c(O)c2cccc3c2n(c1=O)CCC3 | 25.5 (inactive)
Oc1c(C(Nc2nc3ccccc3s2)c2ccco2)ccc2cccnc12 (stereo not given) | 43.4 (inactive)
Cc1ccc2c(nc3s/c(=C\c4ccc(-c5ccccc5C(=O)O)o4)c(=O)n32)c1C | 53.5 (inactive)
Cc1ccc2[nH]cc(/C=C/c3cc[n+](C)cc3)c2c1 | 38.4 (inactive)
O=C1N(c2ccccc2C(F)(F)F)O[C@@]1(c1ccccc1)C1CCCC1 | 46 (inactive)
COc1ccc(C(=O)NC(=S)NNC(=O)c2cnccn2)cc1OC | 38.6 (inactive)
CCCc1nnc(NC(=O)c2c(O)c3cccc4c3n(c2=O)CCC4)s1 | 14.6 (inactive)
O=C1CC(c2ccccc2)=NN1c1nc(-c2ccccc2)cs1 | 19.4 (inactive)
Cc1cccc(NC(c2ccc(C)s2)c2ccc3ccc(C)nc3c2O)n1 (stereo not given) | 31.2 (inactive)
O=C(/C=C/Sc1ncn[nH]1)c1ccc(Cl)cc1 | 29 (inactive)
COc1cc(/C=C2/C(=O)ON=C2c2ccccc2)ccc1O | 35.6 (inactive)
COc1ccccc1[C@]1(C)ON(c2ccccc2C(F)(F)F)C1=O | 30.8 (inactive)
O=C(Nc1nc2ccc(F)cc2s1)c1ccccn1 | 48.2 (inactive)
O=C(CCS(=O)(=O)c1ccccc1)Nc1nc(-c2ccccn2)cs1 | 37.8 (inactive)

Structure (SMILES) | GFP fluorescence, lower = active (kMESF (background-subtracted))
O=C1c2cccc3c([N+](=O)[O-])ccc(c23)C(=O)N1O | 49.9 (inactive)
O=C(COc1ccccc1)N1CCN(c2ncnc3c2cnn3-c2ccccc2)CC1 | 37.1 (inactive)
CN(C)C(=O)Oc1ccnc2cc(Cl)ccc12 | 38.2 (inactive)
COc1cc(/C=C/c2ccc3c(Br)cc(Br)c(O)c3n2)ccc1O | 29.4 (inactive)
CCCc1cc(N2CCN(c3ccccn3)CC2)n2nc(C)c(-c3ccccc3)c2n1 | 38.1 (inactive)
COc1ccccc1OCCCc1c(C)n[nH]c1C | 37.6 (inactive)
Oc1c(CN2CCCCC2)cc(Br)c2cccnc12 | 43.4 (inactive)
Cc1cc(C(=O)Nc2nc(-c3ccccn3)cs2)ccc1[N+](=O)[O-] | 48.9 (inactive)
Cc1ccc(-c2nc(N)c3c(-c4ccc(C)cc4)nn(C(C)(C)C)c3n2)cc1 | 43.1 (inactive)
CCc1ccc(OCC(=O)NNC(=S)NC(=O)C2CC2)c(Br)c1 | 45.8 (inactive)
Fc1cccc(Nc2ncnc3c2cnn3-c2ccccc2)c1 | 35.1 (inactive)
CCOC(=O)CS(=O)(=O)c1nc(-c2ccccc2)cc(C(F)(F)F)n1 | 44.1 (inactive)
NC(=O)COc1ccc(C(=O)/C=C2/C(=O)Nc3ccccc32)cc1 | 40.3 (inactive)
COc1cc(NC(=O)c2cccc(C)c2)ccc1NC(=O)c1cc2ccccc2o1 | 39.6 (inactive)
O=C1N(c2ccccc2C(F)(F)F)OC1(Cc1ccccc1)c1ccccc1 (stereo not given) | 45.8 (inactive)
Oc1c(I)cc(Cl)c2cccnc12 | 25.8 (inactive)
O=C1NC(=O)N(c2ccccc2)C(=O)/C1=C/c1ccc(Sc2ccccc2)o1 | 37.1 (inactive)
O=[N+]([O-])c1ccc(N=Nc2c(Cl)cc(O)cc2Cl)cc1 | 37.9 (inactive)
COc1ccc(C(=O)NNC(=S)NC(=O)/C=C/c2cccs2)cc1 | 47.4 (inactive)
N#C/C(=C\c1cc(Br)ccc1F)C(=O)NC1CC1 | 24.2 (inactive)
